Experimental data as given in publication PMC6868653 (Pharmacology Research & Perspectives, 2019).
Numbering of substitutions follows the chain as printed. Several values for one entry are separate records, joined by “and”; a condition that tells them apart may be missing. Equal values may be shown once. Read-outs that look alike come from different tables or passages of the source.

What was measured:
Mouse GPR132 = molecular target: T1, Mouse GPR132 (Mus musculus, UniProt Q9Z282); assay: β‐arrestin association; type: cell-based; conditions: for pEC50, Mouse GPR132, β‐arrestin: mean ± SD; for Emax, Mouse GPR132, β‐arrestin: normalized to the effect of SB‐583831
T1 sequence (Q9Z282 1-382): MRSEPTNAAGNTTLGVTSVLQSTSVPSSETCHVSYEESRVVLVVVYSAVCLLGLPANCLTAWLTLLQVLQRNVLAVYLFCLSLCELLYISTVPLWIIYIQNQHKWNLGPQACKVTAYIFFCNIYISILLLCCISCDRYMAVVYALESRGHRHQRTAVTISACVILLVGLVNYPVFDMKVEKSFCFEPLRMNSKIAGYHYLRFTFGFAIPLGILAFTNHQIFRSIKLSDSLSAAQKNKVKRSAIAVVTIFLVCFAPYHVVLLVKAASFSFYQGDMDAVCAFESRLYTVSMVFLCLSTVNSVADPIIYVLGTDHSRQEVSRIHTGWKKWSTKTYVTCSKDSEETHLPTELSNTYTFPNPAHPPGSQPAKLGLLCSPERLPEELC

hGPR132a [1] = molecular target: T2, hGPR132a (Homo sapiens, UniProt Q9UNW8); assay: Ca2+ microfluorimetry in RBL‐hGPR132a cells; type: cell-based; conditions: 10 µmol/L ligand, mean ± SE
T2 sequence (Q9UNW8 1-380): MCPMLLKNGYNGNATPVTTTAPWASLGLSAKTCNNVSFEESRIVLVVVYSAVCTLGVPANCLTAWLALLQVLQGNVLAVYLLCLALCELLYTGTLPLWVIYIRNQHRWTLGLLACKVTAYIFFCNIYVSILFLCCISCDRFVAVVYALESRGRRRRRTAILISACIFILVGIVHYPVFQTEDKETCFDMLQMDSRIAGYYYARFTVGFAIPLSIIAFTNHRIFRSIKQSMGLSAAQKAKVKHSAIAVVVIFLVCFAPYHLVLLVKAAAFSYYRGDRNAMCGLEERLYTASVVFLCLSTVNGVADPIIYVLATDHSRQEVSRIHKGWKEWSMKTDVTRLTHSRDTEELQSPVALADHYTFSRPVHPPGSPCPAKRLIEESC

hGPR132a [2] = molecular target: T2, hGPR132a; type: cell-based; conditions: for pEC50, Human GPR132a, Yeast: mean ± SD, IA = inactive, bound = top concentration tested; for Emax, Human GPR132a, Yeast: normalized to the effect of NPGly
Rat GPR132 = Rat GPR132 (Rattus norvegicus, UniProt A0A8I6A964); assay: Yeast pheromone-response pathway reporter assay, yeast expressing rGPR132; type: cell-based; conditions: for pEC50, Rat GPR132, Yeast: mean ± SD; for Emax, Rat GPR132, Yeast: normalized to the effect of 9‐HODE
parental RBL cells = assay: Ca2+ microfluorimetry in parental RBL cells; type: cell-based, rat; conditions: 10 µmol/L ligand, mean ± SE
hGPR132a Y200A = molecular target: T3, hGPR132a Y200A (Homo sapiens, UniProt Q9UNW8, Y200A); assay: Yeast assay, hGPR132a mutant Y200A; conditions: mean ± SD
T3 sequence (Q9UNW8 1-380 Y200A): T2 sequence (Q9UNW8 1-380) with Y200A

hGPR132a [3] = molecular target: T2, hGPR132a; assay: β‐arrestin association; type: cell-based; conditions: for pEC50, Human GPR132a, β‐arrestin: mean ± SD; for Emax, Human GPR132a, β‐arrestin: normalized to the effect of SB‐583831
human CB2 = human CB2 (Homo sapiens, UniProt P34972); assay: Yeast assay, specificity receptor human CB2; type: cell-based
CB2 = conditions: tested up to 10 µmol/L; cited from earlier work
hGPR132a R203A = molecular target: T4, hGPR132a R203A (Homo sapiens, UniProt Q9UNW8, R203A); assay: Yeast assay, hGPR132a mutant R203A; conditions: mean ± SD
T4 sequence (Q9UNW8 1-380 R203A): T2 sequence (Q9UNW8 1-380) with R203A

hGPR132a [4] = molecular target: T2, hGPR132a; assay: Yeast assay hGPR132a, antagonist mode / Schild analysis; type: cell-based; conditions: agonist SB‐583831

Rat GPR132, sequence (A0A8I6A964 1-384): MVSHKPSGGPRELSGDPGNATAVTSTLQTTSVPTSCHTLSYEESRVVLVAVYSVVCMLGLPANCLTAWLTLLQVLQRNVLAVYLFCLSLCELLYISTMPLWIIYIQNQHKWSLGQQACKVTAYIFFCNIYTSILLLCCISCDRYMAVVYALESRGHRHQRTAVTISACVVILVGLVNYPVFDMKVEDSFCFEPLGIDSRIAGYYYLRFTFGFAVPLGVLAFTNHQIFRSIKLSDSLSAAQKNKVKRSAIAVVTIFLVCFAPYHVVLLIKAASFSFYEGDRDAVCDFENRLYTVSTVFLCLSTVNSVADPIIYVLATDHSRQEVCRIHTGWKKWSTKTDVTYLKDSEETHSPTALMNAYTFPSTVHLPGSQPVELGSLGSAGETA
human CB2, sequence (P34972 whole entry): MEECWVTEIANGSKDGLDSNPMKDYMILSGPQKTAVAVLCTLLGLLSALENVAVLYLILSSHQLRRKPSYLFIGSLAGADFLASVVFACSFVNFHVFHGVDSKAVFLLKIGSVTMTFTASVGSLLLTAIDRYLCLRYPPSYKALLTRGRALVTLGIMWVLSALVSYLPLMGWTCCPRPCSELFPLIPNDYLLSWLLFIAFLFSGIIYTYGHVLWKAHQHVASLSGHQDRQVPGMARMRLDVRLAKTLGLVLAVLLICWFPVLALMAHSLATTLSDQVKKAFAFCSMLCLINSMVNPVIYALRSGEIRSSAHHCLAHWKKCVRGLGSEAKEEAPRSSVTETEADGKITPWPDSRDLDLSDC

Compound	pEC50, Mouse GPR132, β‐arrestin (Mouse GPR132)	Emax, Mouse GPR132, β‐arrestin (Mouse GPR132) [%]	pEC50, Human GPR132a, Yeast (hGPR132a [2])	pEC50, Rat GPR132, Yeast (Rat GPR132)	Emax, Rat GPR132, Yeast (Rat GPR132) [%]	Emax, Human GPR132a, Yeast (hGPR132a [2])	pEC50, Human GPR132a, β‐arrestin (hGPR132a [3])	Emax, Human GPR132a, β‐arrestin (hGPR132a [3])	other results
CCCCC/C=C\C=C\C(O)CCCCCCCC(=O)O (stereo not shown) [9‐HODE, 9‐hydroxyoctadecadienoic acid]	5.6 ± 0.23 (5)	97 ± 6	5.9 ± 0.14 (4)	6.2 ± 0.12 (5)	100	–	–	–	Ca2+ transient, peak response (hGPR132a [1]): 0.122 ± 0.016 ratio units; Ca2+ transient, peak response (parental RBL cells): 0.023 ± 0.003 ratio units
CCCCCCC(C)(C)c1ccc([C@@H]2C[C@H](O)CC[C@H]2CCCO)c(O)c1 [CP‐55,940]	–	–	–	–	–	full agonists	–	–	pEC50, Y200A (hGPR132a Y200A): abolished; EC50 (hGPR132a [2]): 3.16 µM; Emax (hGPR132a [2]; read-out: Emax, Human GPR132a, Yeast): 102 ± 3%; EC50 (Rat GPR132): > 3.16 µM
CCCCC/C=C\C/C=C\CCCCCCCC(N)=O [Linoleamide, linoleamide]	<5 (1)	–	5.8 ± 0.01 (3)	5.9 ± 0.21 (2)	37 ± 5	79 ± 11%	5.5 (1)	22%	–
CCCCC/C=C\C/C=C\CCCCCCCC(=O)O [Linoleic acid]	–	–	–	–	–	–	–	–	EC50 (hGPR132a [3]): > 10 µM; EC50 (hGPR132a [2]): > 100 µM; agonist activity at hGPR132a in yeast (hGPR132a [2]; tested up to 100 µmol/L): no detectable agonist activity
CCCCC/C=C\C/C=C\C/C=C\C/C=C\CCCC(=O)NCC(=O)O [NAGly, N‐arachidonoylglycine]	–	–	<4.5 (3)	5.3 ± 0.09 (4)	87 ± 12	38%	–	–	Emax, CB2, yeast (human CB2): 17±2%; pEC50, CB2, yeast (human CB2): 5.6 ± 0.3; binding to CB2 (CB2): does not bind
CCCCC/C=C\C/C=C\C/C=C\C/C=C\CCCC(=O)N[C@@H](Cc1ccc(O)cc1)C(=O)O [NATyr, N‐arachidonyltyrosine]	–	–	–	<4 (3)	–	–	–	–	–
CC/C=C\C/C=C\C/C=C\C/C=C\C/C=C\C/C=C\CCC(=O)NCC(=O)O [NDGly, N‐docosahexanoylglycine]	–	–	<4.4 (4)	–	–	33%	<5 (2)	–	–
CCCCC/C=C\C/C=C\CCCCCCCC(=O)NCC(=O)O [NLGly, N‐linoleoylglycine]	5.3 (1)	40	5.8 ± 0.08 (3)	6.5 ± 0.36 (4)	68 ± 7	84 ± 6%	5.5 ± 0.23 (2)	39±4% and 38 ± 4%	Ca2+ transient, peak response (hGPR132a [1]): 0.138 ± 0.03 ratio units; pEC50, R203A (hGPR132a R203A): abolished responses; Ca2+ transient, peak response (parental RBL cells): 0.040 ± 0.008 ratio units
CCCCCCCC/C=C\CCCCCCCC(=O)NCC(=O)O [NOGly, N‐oleoylglycine]	5.3 ± 0.05 (2)	44 ± 10	5.1 ± 0.24 (3)	–	–	95 ± 6%	5.6 ± 0.18 (2)	29 ± 15%	pEC50, R203A (hGPR132a R203A): eliminated the activity
CCCCCCCC/C=C\CCCCCCCC(=O)N[C@@H](CO)C(=O)O [NOSer, N‐oleoylserine]	–	–	5.8 ± 0.07 (4)	–	–	21 ± 5%	–	–	–
CCCCCCCCCCCCCCCC(=O)NCC(=O)O [NPGly, N‐palmitoylglycine]	<5 (2)	11	6.2 ± 0.16 (7)	7.0 ± 0.12 (4)	53 ± 14	–	<5 (3)	14%	pEC50, R203A (hGPR132a R203A): abolished responses
CCCCCCCCCCCCCCCCCC(=O)NCC(=O)O [NSGly, N‐stereoylglycine]	<5 (1)	–	5.1 ± 0.08 (3)	–	–	80 ± 4%	5.4 (1)	23%	–
CCCc1nc2c(C)cc(-c3nc4ccccc4n3C)cc2n1Cc1ccc(-c2ccccc2C(=O)O)cc1 [telmisartan]	–	–	–	–	–	–	–	–	Schild Hill slope nH (hGPR132a [4]): 1.9
